The values that follow come from paper PMC11930985 (Nature Communications, 2025).

The assay deals with pAKT S473. Nature of the assay: CyTOF maximal inhibition in Undefined/Immature Myeloid cells: pAKT. In kind it is in vivo, human. From the text: Pharmacodynamic endpoints included the measurement of inhibition of pAXL, pERK, pAKT, pS6 and pSTAT1/3/5 in blast cells (defined as cells with abnormal surface marker expression as compared to healthy donor peripheral blood mononuclear cells and undefined/immature myeloid cells (defined as cells carrying myeloid markers but lacking distinguishing terminal differentiation markers). Mass cytometry time of flight (CyTOF) was used for the determination of the pharmacodynamic markers using a previously validated and tested panel of mass-tagged antibodies[39],[40]. The antibodies in the panel are listed in Supplementary Table 5. Briefly, fixed leukocytes from peripheral blood were barcoded using a 20-plex metal barcoding kit (Standard Biotools, Cell-ID 201060) according to manufacturer’s protocol, allowing all the samples from a single individual to be stained and analysed in parallel. All analysis runs included barcoded peripheral blood mononuclear cells (PBMCs) from at least one healthy donor and an identical barcoded reference sample (mix of PBMCs from six healthy donors). […]
For each population, marker, and sample, the 95th percentile of the non-transformed expression values was calculated. […]

≈ marks a conversion by molar mass, not a printed value. Where “and” joins values, the source holds several entries; their conditions need not be identical. Equal entries are not always repeated.

Broadly, the EC50 is the concentration that produces a half-maximal response. Take `Nc1nc(Nc2ccc3c(c2)CC[C@@H](N2CCCC2)CC3)nn1-c1cc2c(nn1)-c1ccccc1CCC2` [Bemcentinib]: for the setting “Homo sapiens, Undefined/Immature Myeloid cells, N = 12 patients, read-out: EC50 (± standard error), pAKT S473 inhibition”, the concentration for a half-maximal effect (EC50) is 0.162 µg/mL (≈ 0.32 µM). Moreover, the “Maximum inhibition (percent) pAKT (S473)” value (Supplementary Figure 1d, individual patients) was 59.9% and 67.4% and 81.4% and 10.2% and 98.8% and 2.4% and 56.3% and 0% and 5.8% and 33.9% and 39.1% and 94.9%.
